According to patent publication US11648248B1 (King Abdulaziz University, priority 2022, dated 2023):
Converted amounts (≈) assume the structure as drawn.

How the values were obtained:
Format in all cases: cell-based
[1] = test system: Methicillin-sensitive Staphylococcus aureus ATCC-6538 (MSSA ATCC-6538); test: MIC of active MY compounds; conditions: read-out: MIC MSSA ATCC-6538
Source text: (§1) Based upon the initial results obtained, the active compounds were further screened against additional clinical isolates of methicillin-sensitive S. aureus (MSSA), methicillin-resistant S. aureus (MRSA), vancomycin-resistant S. aureus (VRSA), Staphylococcus epidermidis, vancomycin-resistant Enterococcus faecium (VRE), vancomycin-resistant Enterococcus faecalis (VRE) and Streptococcus pneumoniae, as presented in Table 2. Additionally, we examined whether the compounds were bacteriostatic (inhibit bacteria from growing) or bactericidal (kill bacteria) by determining the minimum bactericidal concentration (MBC). The MBC was determined by plating 5 μL from each well where no growth was present (in the MIC plates) onto tryptic soya agar plates and incubating plates at 37° C. for 24 hours. The MBC was categorized as the lowest concentration that generated a 99.9% reduction in bacterial colony-forming units (Table 3).
(§2) The minimum inhibitory concentrations (MICs) of the tested compounds and control drugs; linezolid, vancomycin, gentamicin (antibiotics) and fluconazole and 5-fluorocytosine (5-FC) (antifungal drugs) were determined using the broth microdilution method, according to guidelines outlined by the Clinical and Laboratory Standards Institute (CLSI)^1, 2, 3 against clinically-relevant bacterial (methicillin-resistant Staphylococcus aureus (MRSA), Escherichia coli and Clostridium difficile strains) and fungal (Candida albicans) strain. S. aureus and E. coli were grown aerobically overnight on tryptone soy agar plates at 37° C. C. difficile was grown anaerobically on brain heart infusion supplemented agar at 37° C. for 48 hours. C. albicans was grown aerobically overnight on yeast peptone dextrose (YPD) agar plate at 35° C. Afterwards, a bacterial solution equivalent to 0.5 McFarland standard was prepared and diluted in cation-adjusted Mueller-Hinton broth (CAMHB) (for S. aureus and E. coli) to achieve a bacterial concentration of about 5×10^5 CFU/mL. C. difficile was diluted in brain heart infusion supplemented broth, supplemented with yeast extract, hemin and vitamin K to achieve a bacterial concentration of about 5×10^5 CFU/mL. C. albicans was diluted in Roswell Park Memorial Institute (RPMI 1640) medium with glutamine and without bicarbonate (GIBCO by Life Technologies, Green Island, N.Y., USA) which was buffered to pH 7.0 with 0.165 M of [3-(N-morpholino) propanesulfonic acid] (MOPS) (dot scientific inc., Burton, Mich., USA) to achieve a fungal concentration of about 1.5×10^3 CFU/mL. Compounds and control drugs were added in the first row of the 96-well plates and serially diluted with the corresponding media containing bacteria/fungi. Plates were then, incubated aerobically at 37° C. for 18-20 hours (for S. aureus and E. coli). C. difficile was incubated anaerobically at 37° C. for 48 hours. C. albicans was incubated aerobically at 37° C. for 24 hours.

[2] = test system: Staphylococcus epidermidis (NRS-101); test: MIC of active MY compounds; conditions: NRS101, read-out: MIC S. epidermidis NRS 101
Source text: as §1, §2

[3] = test system: Methicillin-resistant Staphylococcus aureus (MRSA NRS-119); test: MIC of active MY compounds; conditions: read-out: MIC MRSA NRS119
Source text: as §1, §2

[4] = test system: Cephalosporin-resistant Streptococcus pneumoniae ATCC-15916; test: MIC of active MY compounds; conditions: ATCC15916, read-out: MIC S. pneumoniae ATCC-15916
Source text: as §1, §2

[5] = test system: Vancomycin-resistant Enterococcus faecium ATCC-700221 (VRE ATCC-700221); test: MIC of active MY compounds; conditions: read-out: MIC VRE ATCC-700221
Source text: as §1, §2

[6] = test system: Vancomycin-resistant Staphylococcus aureus (VRSA10); test: MIC of active MY compounds; conditions: read-out: MIC VRSA10
Source text: as §1, §2

[7] = test system: Methicillin-resistant Staphylococcus aureus (MRSA NRS-123, USA400); test: MIC of active MY compounds; conditions: read-out: MIC MRSA NRS123 (USA400)
Source text: as §1, §2

[8] = test system: Methicillin-sensitive Staphylococcus aureus ATCC-6538 (MSSA ATCC-6538); test: MBC by plating from MIC wells; conditions: 99.9% reduction in CFU, read-out: MBC MSSA ATCC-6538
Source text: as §1

[9] = test system: Methicillin-sensitive Staphylococcus aureus (MSSA NRS-107); test: MBC by plating from MIC wells; conditions: 99.9% reduction in CFU, read-out: MBC MSSA NRS-107
Source text: as §1

[10] = test system: Vancomycin-resistant Staphylococcus aureus (VRSA12); test: MBC by plating from MIC wells; conditions: 99.9% reduction in CFU, read-out: MBC VRSA12
Source text: as §1

[11] = test system: Vancomycin-resistant Enterococcus fecalis ATCC-51299 (VRE ATCC-51299); test: MBC by plating from MIC wells; conditions: 99.9% reduction in CFU, read-out: MBC VRE ATCC-51299
Source text: as §1

[12] = test system: Cephalosporin-resistant Streptococcus pneumoniae ATCC-700677; test: MBC by plating from MIC wells; conditions: ATCC700677, 99.9% reduction in CFU, read-out: MBC S. pneumoniae ATCC 700677
Source text: as §1

[13] = test system: Staphylococcus epidermidis (NRS-101); test: MBC by plating from MIC wells; conditions: NRS101, 99.9% reduction in CFU, read-out: MBC S. epidermidis NRS 101
Source text: as §1

[14] = test system: Methicillin-resistant Staphylococcus aureus (MRSA NRS-119); test: MBC by plating from MIC wells; conditions: 99.9% reduction in CFU, read-out: MBC MRSA NRS119
Source text: as §1

[15] = test system: Cephalosporin-resistant Streptococcus pneumoniae ATCC-15916; test: MBC by plating from MIC wells; conditions: ATCC15916, 99.9% reduction in CFU, read-out: MBC S. pneumoniae ATCC-15916
Source text: as §1

[16] = test system: Vancomycin-resistant Enterococcus faecium ATCC-700221 (VRE ATCC-700221); test: MBC by plating from MIC wells; conditions: 99.9% reduction in CFU; read-out: MBC VRE ATCC-700221
Source text: as §1

[17] = test system: Listeria monocytogenes ATCC-19111; test: MBC by plating from MIC wells; conditions: ATCC19111, 99.9% reduction in CFU, read-out: MBC L. monocytogenes ATCC-19111
Source text: as §1

[18] = test system: Methicillin-resistant Staphylococcus aureus (MRSA NRS-123, USA400); test: MBC by plating from MIC wells; conditions: 99.9% reduction in CFU, read-out: MBC MRSA NRS123 (USA400)
Source text: as §1

[19] = test system: Listeria monocytogenes ATCC-19111; test: MIC of active MY compounds; conditions: ATCC19111, read-out: MIC L. monocytogenes ATCC-19111

SMILES	MIC [1]	MIC [2]	MIC [3]	MIC [4]	MIC [5]	MIC [6]	MIC [7]	MBC [8]	MBC [9]	MBC [10]	MBC [11]	MBC [12]	MBC [13]	MBC [14]	MBC [15]	MBC [16]	MBC [17]	MBC [18]	MIC [19]
CC(=O)NC[C@H]1CN(c2ccc(N3CCOCC3)c(F)c2)C(=O)O1 [Linezolid, reference compound]	0.5 µg/mL	0.5 µg/mL	64 µg/mL	1 µg/mL	1 µg/mL	1 µg/mL	1 µg/mL	8 µg/mL (≈ 23.7 µM)	16 µg/mL (≈ 47.4 µM)	16 µg/mL (≈ 47.4 µM)	16 µg/mL (≈ 47.4 µM)	16 µg/mL (≈ 47.4 µM)	8 µg/mL (≈ 23.7 µM)	> 64 µg/mL	32 µg/mL (≈ 94.9 µM)	16 µg/mL (≈ 47.4 µM)	32 µg/mL (≈ 94.9 µM)	64 µg/mL (≈ 190 µM)	0.5 µg/mL
O=C(Nc1cccc(Nc2ccc(Cl)nn2)c1)Nc1ccc(Cl)c(Cl)c1 [MY14, 1-(3-((6-chloropyridazin-3-yl)amino)phenyl)-3-(3,4-dichlorophenyl)urea]	2 µg/mL	8 µg/mL	4 µg/mL	4 µg/mL	32 µg/mL	2 µg/mL	4 µg/mL	32 µg/mL (≈ 78.3 µM)	8 µg/mL (≈ 19.6 µM)	32 µg/mL (≈ 78.3 µM)	> 64 µg/mL	> 64 µg/mL	64 µg/mL (≈ 157 µM)	8 µg/mL (≈ 19.6 µM)	64 µg/mL (≈ 157 µM)	> 64 µg/mL	> 64 µg/mL	8 µg/mL (≈ 19.6 µM)	8 µg/mL
CNC(=O)c1cc(Oc2ccc(NC(=O)Nc3ccc(Cl)c(C(F)(F)F)c3)cc2)ccn1 [Sorafenib, reference compound]	4 µg/mL	8 µg/mL	2 µg/mL	4 µg/mL	> 64 µg/mL	4 µg/mL	4 µg/mL	> 64 µg/mL	> 64 µg/mL	> 64 µg/mL	> 64 µg/mL	> 64 µg/mL	> 64 µg/mL	> 64 µg/mL	> 64 µg/mL	> 64 µg/mL	> 64 µg/mL	> 64 µg/mL	4 µg/mL
